This is an account of results in US20090054403A1, “Treatment of Post-Traumatic Stress Disorder” (priority 2007, published 2009).

One data set concerns squirrel monkeys. The experiment in a line: Safety and tolerability of oral dosing in squirrel monkeys. The settings on record: 0.5, 2.0, 5.0 mg/kg twice daily for 5 days. The class given is in vivo, squirrel monkeys (Saimiri sciureus). The procedure: Twenty-seven (27) mature squirrel monkeys (Saimiri sciureus), sixteen females and eleven males were used for this study. The monkeys were maintained on a 13 h/11 h light-dark cycle, with food and water available ad libitum. All procedures used in this study followed NIH guidelines and were approved by the Institutional Animal Care and Use Committee (IACUC). Animals were individually housed and allowed a minimum of one month to acclimate to the colony prior to commencing behavioral studies. A total of six squirrel monkeys, three non-lesioned and three lesioned (received 2 mg/kg MPTP 3 months prior), were used for these studies. To determine the optimal route of administration of drug nepicastat, three different approaches were examined including (i) insertion into treats, (ii) oral syringe, and (ii) oral gavage. […] (ii) Oral syringe injection of drug (0.5, 2, and 5 mg/kg) into the mouth of three non-lesioned and three lesioned monkeys was also not an acceptable route since animals tended to spit out the solution at the highest drug concentration. (iii) Oral gavage administration was carried out in 3 MPTP-Iesioned monkeys at the highest dose (5 mg/kg) and was well accepted.
A total of six squirrel monkeys, three non-lesioned and three lesioned (received 2 mg/kg MPTP 3 months prior), were used for these studies. […]

The nature of data set [1]: Tissue and plasma compound levels in beagle dogs, 10, 30, 60 mg/kg/day. The class given is in vivo. The procedure: Thirty-two male beagle dogs, weighing 10-12 kg, were randomly assigned to one of the following 4 treatment groups (n=8 per group): nepicastat at 0 mg/kg/day (placebo), 10 mg/kg/day (5 mg/kg b.i.d.), 30 mg/kg (15 mg/kg b.i.d.), or 60 mg/kg/day (30 mg/kg b.i.d.). Dog numbers 1-16 were assigned as dose group A and dog numbers 17-32 as dose group B. The terminal surgery for tissue harvest was performed over 2 days with 16 animals studied per day. Two or 3 days before the first compound administration each dog was weighed and skin regions overlying both cephalic, saphenous and jugular veins were shaved. Dosing consisted of oral administration of one capsule with the second given 8-10 hr later. Dogs were dosed as scheduled on days 1-3. On day 4, prior to the AM dose, 3 ml of blood were obtained from a jugular vein for determination of baseline plasma compound levels. […]
Ventricles were homogenized in 50 mM Tris-HCl, 5 mM Na2EDTA buffer (pH 7.4 at 4° C.) using a Polytron P-10 tissue disrupter (setting 10, 2×15 second bursts). […] Aquasol scintillation fluid was added to each vial and radioactivity determined by liquid scintillation counting. Saturation binding isotherms were analyzed after first converting total ligand concentrations to free ligand concentrations (total−bound=free). […]

For a further data set, the system named is mice. The experiment in a line: Clinical observations, behavioral tests and rectal temperature after single oral dose. The data set is classed as in vivo. Conditions: 30, 100, 300 mg/kg single oral, from 60 min. The procedure:
A single oral dose of vehicle or Nepicastat formulation was administered by gavage to each mouse using a rodent intubator. The oral route was selected because it is a proposed clinical route of administration. Dose volumes were calculated on the basis of individual body weights recorded before dosing (body weight data are not tabulated in this report). Food and water were withheld from the mice 2.5 to 3.5 hours before dosing, instead of 1.5 hours as specified in the protocol.
Clinical observations were recorded before dosing. Beginning 60 minutes after dosing, mice in each treatment group were evaluated in groups of up to 3 over an interval of approximately 10 minutes each for clinical observations and protocol-specified behavioral tests.^1 One mouse in the 30-mg/kg group and 1 mouse in the 100-mg/kg group died after dosing and they were removed from the study. Surviving mice were euthanatized and removed from the study at the end of the observation/testing period.
Mice in groups of 6 males each were administered single oral doses of 0 (vehicle), 30, 100, or 300 mg/kg of nepicastat by gavage. Clinical observations and behavioral tests were initiated 60 minutes after administration of the test formulation. At the end of the observation period, all surviving mice were euthanatized and removed from the study.

Each structure is given as a SMILES string.

On to `Cl.NCc1c[nH]c(=S)n1[C@H]1CCc2c(F)cc(F)cc2C1` [nepicastat, (S)-5-Aminomethyl-1-(5,7-difluoro-1,2,3,4-tetrahydronaphth-2-yl)-2,3-dihydro-2-thioxo-1H-imidazole hydrochloride], for which the tolerability result in the data set on squirrel monkeys is given as “well tolerated at the two lower doses”. The “dose proportionality of concentration in plasma (Day 4) and tissue and plasma (Day 5)” value in data set [1] (10, 30, 60 mg/kg/day, exceptions kidney medulla, plasma day 4) is recorded as “dose-proportional”. Further, the “levels in all tissues examined relative to plasma” value in data set [1] (Day 5) is “higher than those in plasma”. In addition, in the data set with mice, the “clinical or gross behavior changes” value is reported as “No treatment-related clinical or gross behavior changes” and the “rectal body temperature vs vehicle-control” value was “Lower body temperatures”.
